# Test results as given in paper PMC13070491, “Single-nucleus transcriptomics, pharmacokinetics, and pharmacodynamics of CDK4/6 and mTOR inhibition in a Phase 0/1 trial of recurrent high-grade glioma” (Neuro-Oncology, 2025).
# Tested on: GB126, GB239 and GB86 patient-derived cell lines
# Test: In vitro single-cell RNA sequencing, analyses across the cell lines (pseudobulk differential gene expression, GSEA, non-cycling cells)
# Format: cell-based, human
# Details: pseudobulk, ribociclib versus control (DMSO)
# Experimental: Patient-derived glioma stem cell lines (GSCs; GB126, GB86, and GB239) were established from resected GBM tumor tissue. Cell lines were genetically profiled for mutations and copy number aberrations using the IvySeq custom gene panel. […] GB239 was derived from a tumor sample included in this Phase 0 trial (tumor sample: 100-0039). All human GSCs were cultured as described previously.[12]
# Following the fifth day of drug exposure, cells were harvested, cryopreserved to be processed at a later point, or immediately processed for single-cell RNA sequencing (10x Genomics, 3’ version 3). The single-cell RNA sequencing data were then processed via cellranger count and Seurat. Briefly, cells were filtered out based on the following criteria: minimum number of genes detected >500 and <10 000 with a maximum percentage of mitochondrial genes set to 10%. Statistical assessment was made between the malignant proportions of each cell state using a 2-sided paired t-test.
# Descriptive statistics of the clinical data are included in Table 1. Comparisons between groups were conducted using a 2-sided or paired 2-sided t-test, where indicated. P < .05 was considered significant. Multiple hypothesis test corrections (ie, false discovery rate correction) were applied for snRNAseq pseudobulk differential expression analysis.
smiles,measurement,setting,value
CN(C)C(=O)c1cc2cnc(Nc3ccc(N4CCNCC4)cn3)nc2n1C1CCCC1 [ribo],log2FoldChange ABCA6,gene ABCA6,1.5
same,log2FoldChange ABCA8,gene ABCA8,1.548
same,log2FoldChange AC002074.1,gene AC002074.1,1.866
same,log2FoldChange AC002383.1,gene AC002383.1,1.53
same,log2FoldChange AC004828.1,gene AC004828.1,1.459
same,log2FoldChange AC005538.3,gene AC005538.3,2.148
same,log2FoldChange AC007317.2,gene AC007317.2,2.061
same,log2FoldChange AC009313.1,gene AC009313.1,1.78
same,log2FoldChange AC009975.2,gene AC009975.2,1.436
same,log2FoldChange AC010230.1,gene AC010230.1,1.7556
same,log2FoldChange AC010551.3,gene AC010551.3,1.556
same,log2FoldChange AC012038.2,gene AC012038.2,2.048
same,log2FoldChange AC012405.1,gene AC012405.1,1.439
same,log2FoldChange,gene AC012533.1,-1.092
same,log2FoldChange AC012625.1,gene AC012625.1,1.675
same,log2FoldChange AC013480.1,gene AC013480.1,1.662
same,log2FoldChange AC020892.1,gene AC020892.1,1.613
same,log2FoldChange AC023644.1,gene AC023644.1,1.813
same,log2FoldChange,gene AC024884.2,-1.745
same,log2FoldChange AC025263.1,gene AC025263.1,1.435
same,log2FoldChange,gene AC026333.4,-1.805
same,log2FoldChange AC026888.1,gene AC026888.1,1.994
same,log2FoldChange AC027117.1,gene AC027117.1,1.702
same,log2FoldChange AC055874.1,gene AC055874.1,1.6992
same,log2FoldChange AC073611.1,gene AC073611.1,1.444
same,log2FoldChange AC079117.1,gene AC079117.1,1.6417
same,log2FoldChange AC090403.1,gene AC090403.1,1.628
same,log2FoldChange AC091953.1,gene AC091953.1,1.742
same,log2FoldChange AC092604.1,gene AC092604.1,1.65
same,log2FoldChange AC092617.1,gene AC092617.1,2.048
same,log2FoldChange AC092691.3,gene AC092691.3,1.975
same,log2FoldChange AC096576.2,gene AC096576.2,1.586
same,log2FoldChange AC096576.3,gene AC096576.3,1.66
same,log2FoldChange AC097375.4,gene AC097375.4,1.562
same,log2FoldChange,gene AC099850.3,-1.64
same,log2FoldChange AC100835.2,gene AC100835.2,1.894
same,log2FoldChange AC104078.2,gene AC104078.2,1.507
same,log2FoldChange AC104574.1,gene AC104574.1,1.483
same,log2FoldChange AC106874.1,gene AC106874.1,1.556
same,log2FoldChange AC109129.1,gene AC109129.1,1.6709
same,log2FoldChange AC110296.1,gene AC110296.1,1.762
same,log2FoldChange AC114546.2,gene AC114546.2,1.559
same,log2FoldChange AC114964.2,gene AC114964.2,1.675
same,log2FoldChange,gene AC116914.1,-1.614
same,log2FoldChange AC121154.1,gene AC121154.1,1.879
same,log2FoldChange AC132153.1,gene AC132153.1,1.518
same,log2FoldChange AC133530.1,gene AC133530.1,1.513
same,log2FoldChange AC137579.1,gene AC137579.1,1.549
same,log2FoldChange,gene AC138819.1,-1.883
same,log2FoldChange ACSM5,gene ACSM5,2.672
same,log2FoldChange,gene ACYP1,-1.092
same,log2FoldChange ADAMTS4,gene ADAMTS4,1.636
same,log2FoldChange ADCY5,gene ADCY5,1.503
same,log2FoldChange ADGRA1-AS1,gene ADGRA1-AS1,1.641
same,log2FoldChange ADH1A,gene ADH1A,1.456
same,log2FoldChange AL022324.3,gene AL022324.3,1.692
same,log2FoldChange,gene AL031658.2,-1.667
same,log2FoldChange AL132633.1,gene AL132633.1,1.623
same,log2FoldChange,gene AL132655.3,-1.059
same,log2FoldChange AL135934.1,gene AL135934.1,1.5674
same,log2FoldChange,gene AL138789.1,-1.6906
same,log2FoldChange AL158058.1,gene AL158058.1,2.1266
same,log2FoldChange AL162385.1,gene AL162385.1,2.332
same,log2FoldChange AL354813.1,gene AL354813.1,1.4344
same,log2FoldChange AL355916.2,gene AL355916.2,1.536
same,log2FoldChange,gene AL356094.2,-1.675
same,log2FoldChange AL358394.1,gene AL358394.1,2.818
same,log2FoldChange,gene AL390839.2,-1.735
same,log2FoldChange AL391730.2,gene AL391730.2,1.804
same,log2FoldChange AL445423.1,gene AL445423.1,1.473
same,log2FoldChange AL591686.1,gene AL591686.1,1.912
same,log2FoldChange,gene AL645608.7,-1.064
same,log2FoldChange,gene ANP32E,-1.059
same,log2FoldChange AP000569.1,gene AP000569.1,1.498
same,log2FoldChange AP000857.2,gene AP000857.2,1.634
same,log2FoldChange AP001825.1,gene AP001825.1,1.5203
same,log2FoldChange AP002370.2,gene AP002370.2,1.537
same,log2FoldChange AP002761.2,gene AP002761.2,1.672
same,log2FoldChange,gene ARHGAP11A,-1.6744
same,log2FoldChange ARHGAP26-IT1,gene ARHGAP26-IT1,2.344
same,log2FoldChange,gene ARNTL2,-1.092
same,log2FoldChange ASB9,gene ASB9,1.438
same,log2FoldChange BAIAP3,gene BAIAP3,1.561
same,log2FoldChange BBOX1,gene BBOX1,1.457
same,log2FoldChange,gene BRIP1,-1.784
same,log2FoldChange BST2,gene BST2,1.645
same,log2FoldChange,gene BUB1,-1.8
same,log2FoldChange,gene C1QTNF2,-1.812
same,log2FoldChange C1orf147,gene C1orf147,1.503
same,log2FoldChange C16orf89,gene C16orf89,1.4386
same,log2FoldChange C20orf78,gene C20orf78,1.576
same,log2FoldChange,gene C21orf58,-1.614
same,log2FoldChange CALB2,gene CALB2,2.123
same,log2FoldChange,gene CAMK2N2,-1.147
same,log2FoldChange,gene CCDC74A,-1.6
same,log2FoldChange,gene CCDC74B,-1.688
same,log2FoldChange,gene CCNE2,-1.873
same,log2FoldChange,gene CCNF,-1.863
same,log2FoldChange,gene CDCA4,-1.7252
same,log2FoldChange,gene CDKN3,-1.855
same,log2FoldChange,gene CHAF1B,-1.654
same,log2FoldChange CHGA,gene CHGA,1.609
same,log2FoldChange CHI3L1,gene CHI3L1,1.918
same,log2FoldChange CHL1-AS1,gene CHL1-AS1,1.667
same,log2FoldChange CHST4,gene CHST4,1.465
same,log2FoldChange CLEC1A,gene CLEC1A,1.693
same,log2FoldChange,gene CRHR1,-1.091
same,log2FoldChange CYP4Z1,gene CYP4Z1,1.554
same,log2FoldChange CYSLTR2,gene CYSLTR2,1.514
same,log2FoldChange CYYR1-AS1,gene CYYR1-AS1,1.511
same,log2FoldChange DDO,gene DDO,1.495
same,log2FoldChange,gene DEPDC1B,-1.796
same,log2FoldChange,gene DERL3,-1.095
same,log2FoldChange,gene DHFR,-1.766
same,log2FoldChange,gene DIAPH3-AS2,-1.671
same,log2FoldChange,gene DNA2,-1.693
same,log2FoldChange DSCR8,gene DSCR8,1.633
same,log2FoldChange,gene DTL,-1.106
same,log2FoldChange,gene ECT2,-1.057
same,log2FoldChange FAM71F1,gene FAM71F1,1.476
same,log2FoldChange,gene FAM72D,-1.625
same,log2FoldChange FAM189A2,gene FAM189A2,1.685
same,log2FoldChange,gene FANCG,-1.109
same,log2FoldChange,gene FBLN1,-1.678
same,log2FoldChange,gene FEN1,-1.753
same,log2FoldChange,gene FGFR3,-1.106
same,log2FoldChange FSHR,gene FSHR,1.906
same,log2FoldChange GBP6,gene GBP6,1.725
same,log2FoldChange GDF3,gene GDF3,1.697
same,log2FoldChange,gene GINS2,-1.846
same,log2FoldChange,gene GLI1,-1.086
same,log2FoldChange,gene GMNN,-1.627
same,log2FoldChange HABP2,gene HABP2,1.889
same,log2FoldChange,gene HAUS8,-1.09
same,log2FoldChange HEPH,gene HEPH,1.499
same,log2FoldChange HGFAC,gene HGFAC,1.4467
same,log2FoldChange,gene HIRIP3,-1.608
same,log2FoldChange,gene HIST1H1C,-1.863
same,log2FoldChange,gene HIST1H3H,-1.783
same,log2FoldChange HKDC1,gene HKDC1,1.5426
same,log2FoldChange,gene IL1A,-1.056
same,log2FoldChange,gene IL2RB,-1.0626
same,log2FoldChange,gene INCENP,-1.833
same,log2FoldChange ITIH6,gene ITIH6,1.766
same,log2FoldChange,gene KCNAB3,-1.628
same,log2FoldChange KISS1,gene KISS1,2.005
same,log2FoldChange,gene KNTC1,-1.6836
same,log2FoldChange LINC00239,gene LINC00239,1.81
same,log2FoldChange LINC00587,gene LINC00587,1.439
same,log2FoldChange LINC00601,gene LINC00601,1.889
same,log2FoldChange LINC00645,gene LINC00645,1.665
same,log2FoldChange LINC00844,gene LINC00844,1.919
same,log2FoldChange LINC00892,gene LINC00892,1.448
same,log2FoldChange LINC00901,gene LINC00901,2.0689
same,log2FoldChange LINC00903,gene LINC00903,1.858
same,log2FoldChange LINC00943,gene LINC00943,1.485
same,log2FoldChange LINC00992,gene LINC00992,1.834
same,log2FoldChange,gene LINC01337,-1.849
same,log2FoldChange LINC01496,gene LINC01496,1.714
same,log2FoldChange LINC01630,gene LINC01630,1.508
same,log2FoldChange LINC01822,gene LINC01822,1.567
same,log2FoldChange LINC02073,gene LINC02073,1.471
same,log2FoldChange,gene LINC02137,-1.093
same,log2FoldChange LINC02243,gene LINC02243,1.564
same,log2FoldChange LINC02320,gene LINC02320,1.543
same,log2FoldChange LINC02349,gene LINC02349,1.483
same,log2FoldChange LINC02450,gene LINC02450,1.635
same,log2FoldChange LINC02552,gene LINC02552,1.805
same,log2FoldChange LINC02625,gene LINC02625,1.633
same,log2FoldChange,gene LINC02757,-1.715
same,log2FoldChange LINC02831,gene LINC02831,1.506
same,log2FoldChange LNX1-AS1,gene LNX1-AS1,1.468
same,log2FoldChange,gene LPL,-1.817
same,log2FoldChange,gene LRRC26,-1.7868
same,log2FoldChange MARVELD3,gene MARVELD3,1.752
same,log2FoldChange MCHR1,gene MCHR1,1.5856
same,log2FoldChange,gene MCM8,-1.112
same,log2FoldChange MGP,gene MGP,1.798
same,log2FoldChange,gene MMS22L,-1.0936
same,log2FoldChange,gene MND1,-1.879
same,log2FoldChange MYH7,gene MYH7,1.782
same,log2FoldChange NAT2,gene NAT2,2.867
same,log2FoldChange NCAN,gene NCAN,1.62
same,log2FoldChange,gene NCAPD2,-1.822
same,log2FoldChange,gene NEMP2,-1.111
same,log2FoldChange,gene NEUROD4,-1.88
same,log2FoldChange NHLRC4,gene NHLRC4,1.795
same,log2FoldChange NMRK2,gene NMRK2,1.566
same,log2FoldChange,gene NOSTRIN,-1.881
same,log2FoldChange,gene NT5M,-1.088
same,log2FoldChange,gene NUP210,-1.755
same,log2FoldChange,gene PALM3,-1.6379
same,log2FoldChange,gene PASK,-1.1089
same,log2FoldChange PCP4L1,gene PCP4L1,2.139
same,log2FoldChange,gene PHF19,-1.68
same,log2FoldChange PLA2G5,gene PLA2G5,2.135
same,log2FoldChange PLAAT4,gene PLAAT4,1.529
same,log2FoldChange,gene PMAIP1,-1.131
same,log2FoldChange,gene POLQ,-1.824
same,log2FoldChange PPP1R1C,gene PPP1R1C,1.557
same,log2FoldChange PROK2,gene PROK2,1.695
same,log2FoldChange,gene PRR11,-1.758
same,log2FoldChange,gene PSMC3IP,-1.597
same,log2FoldChange PTGDS,gene PTGDS,2.458
same,log2FoldChange RAB7B,gene RAB7B,1.47
same,log2FoldChange,gene RACGAP1,-1.841
same,log2FoldChange,gene RAD51,-1.643
same,log2FoldChange,gene RADIL,-1.781
same,log2FoldChange,gene RBBP8,-1.095
same,log2FoldChange,gene RDM1,-1.73
same,log2FoldChange,gene REXO5,-1.094
same,log2FoldChange,gene RHBDL3,-1.639
same,log2FoldChange RNASE6,gene RNASE6,1.784
same,log2FoldChange,gene RPA3,-1.063
same,log2FoldChange RSPH1,gene RSPH1,1.529
same,log2FoldChange,gene RTKN2,-1.715
